Measured values taken from patent publication US20050186658A1, “Chimeric metabotropic glutamate receptors and uses thereof” (NPS Pharmaceuticals, Inc., priority 2003, published 2005).

How the values were obtained:
[1] = target: T1, CaSPhmGluR5(27-22) (Homo sapiens, UniProt P41594); experiment: oocyte assay for PLC-coupled receptors (voltage clamp, Cl- current); assay type: cell-based; conditions: 100 uM L-glutamate; Xenopus oocytes; FIG. 8
T1 construct: CaR signal peptide (first 27 amino acids of CaR) (N); expressed in transfected cells; host or cells: Xenopus laevis oocytes injected with in vitro transcribed RNA

[2] = target: T2, CaSPhmGluR2(27-19) (Homo sapiens, UniProt Q14416); experiment: oocyte assay for Gαi-coupled receptors (GIRK1/GIRK4 co-injection, voltage clamp); assay type: cell-based; conditions: 100 uM L-glutamate; Xenopus oocytes; FIG. 6
T2 construct: CaR signal peptide (first 27 amino acids of CaR) (N); expressed in transfected cells; host or cells: Xenopus laevis oocytes injected with RNA (with GIRK1 and GIRK4 RNA)

[3] = target: T3, human CaR (Homo sapiens, UniProt P41180, R990G); experiment: PLC-coupled oocyte assay; assay type: cell-based; conditions: Xenopus oocytes; FIG. 10B
T3 construct: expressed in transfected cells; host or cells: Xenopus laevis oocytes injected with human CaR RNA (plasmid phPCaR4.0)
T3 sequence (P41180 20-1078 R990G): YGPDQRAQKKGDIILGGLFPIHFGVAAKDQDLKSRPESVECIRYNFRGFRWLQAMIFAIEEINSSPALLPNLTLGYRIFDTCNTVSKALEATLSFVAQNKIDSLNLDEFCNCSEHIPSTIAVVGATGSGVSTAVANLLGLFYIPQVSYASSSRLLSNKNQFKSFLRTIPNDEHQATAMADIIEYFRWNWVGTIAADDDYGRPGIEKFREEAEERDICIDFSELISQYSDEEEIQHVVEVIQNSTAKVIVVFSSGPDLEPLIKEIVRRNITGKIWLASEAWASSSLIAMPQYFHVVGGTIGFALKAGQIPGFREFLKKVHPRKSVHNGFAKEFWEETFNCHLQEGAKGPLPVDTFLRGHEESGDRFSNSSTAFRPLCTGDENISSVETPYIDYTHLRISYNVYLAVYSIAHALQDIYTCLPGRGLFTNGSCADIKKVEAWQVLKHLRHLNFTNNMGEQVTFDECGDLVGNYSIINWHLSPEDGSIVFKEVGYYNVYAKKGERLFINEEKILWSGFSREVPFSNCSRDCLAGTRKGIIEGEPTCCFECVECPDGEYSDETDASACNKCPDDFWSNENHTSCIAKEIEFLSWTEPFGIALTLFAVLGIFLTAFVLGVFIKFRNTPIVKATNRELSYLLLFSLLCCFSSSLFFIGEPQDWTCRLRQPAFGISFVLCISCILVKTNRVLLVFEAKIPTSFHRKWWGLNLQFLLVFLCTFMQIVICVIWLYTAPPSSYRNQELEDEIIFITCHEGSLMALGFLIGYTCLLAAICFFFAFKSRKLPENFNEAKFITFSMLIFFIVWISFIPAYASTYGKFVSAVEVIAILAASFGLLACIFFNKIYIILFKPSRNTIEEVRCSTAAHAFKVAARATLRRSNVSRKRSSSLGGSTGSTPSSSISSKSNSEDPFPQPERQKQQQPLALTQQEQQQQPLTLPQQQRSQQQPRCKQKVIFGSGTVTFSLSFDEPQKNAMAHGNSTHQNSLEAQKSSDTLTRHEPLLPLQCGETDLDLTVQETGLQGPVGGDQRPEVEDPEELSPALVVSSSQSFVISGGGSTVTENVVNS

[4] = target: T4, CaSPhmGluR3(27-33) (Homo sapiens, UniProt Q14832); experiment: oocyte assay for Gαi-coupled receptors (GIRK1/GIRK4 co-injection, voltage clamp); assay type: cell-based; conditions: 100 uM L-glutamate; Xenopus oocytes; FIG. 5
T4 construct: CaR signal peptide (first 27 amino acids of CaR) (N); expressed in transfected cells; host or cells: Xenopus laevis oocytes injected with RNA (with GIRK1 and GIRK4 RNA)
Procedure: (§1) The ability of each Gαi-coupled mGlu or mGluR-CaR chimeric receptors to function was determined in Xenopus oocytes, with co-injection of the G-protein inward rectifying potassium channel subunits, GIRK 1 and GIRK4 (Kubo et al 1993 Nature 364: 802). Individual oocytes were injected with a mixture containing 5 ng receptor, 1.5 ng GIRK1 and 1.5 ng GIRK4. […] Further details can be found in Saugstad, et al., J. Neurosci. 1996 16:5979-5985. Application of glutamate evoked inward potassium currents in oocytes expressing both the chimeric receptors and the potassium channels, but not in oocytes expressing only the receptor or only the channel subunits.

[5] = target: T5, CaSPhmGluR7(27-45) (Homo sapiens, UniProt Q14831); experiment: as above; assay type: cell-based; conditions: 100 uM L-glutamate; Xenopus oocytes; FIG. 4
T5 construct: human CaR signal peptide (first 27 amino acids of CaR), replacing mGluR7 residues 1-44 (N); expressed in transfected cells; host or cells: Xenopus laevis oocytes injected with in vitro transcribed RNA (co-injected with GIRK1 and GIRK4 RNA)
Procedure: as §1

[6] = target: T6, CaSPhmGluR6(27-35) (Homo sapiens, UniProt O15303, Q59P); experiment: as above; assay type: cell-based; conditions: 100 uM L-glutamate; Xenopus oocytes; FIG. 7
T6 construct: CaR signal peptide (first 27 amino acids of CaR) (N); expressed in transfected cells; host or cells: Xenopus laevis oocytes injected with RNA
Procedure: as §1

[7] = target: pmGluR1/CaR chimera (Rattus norvegicus, UniProt P23385); conditions: Xenopus oocytes; compared with rat mGluR1; FIG. 9
[8] = target: rat mGluR1 (Rattus norvegicus, UniProt P23385); conditions: Xenopus oocytes; FIG. 9 and FIG. 10A

T1 sequence (P41594 with tags, fused parts or gaps): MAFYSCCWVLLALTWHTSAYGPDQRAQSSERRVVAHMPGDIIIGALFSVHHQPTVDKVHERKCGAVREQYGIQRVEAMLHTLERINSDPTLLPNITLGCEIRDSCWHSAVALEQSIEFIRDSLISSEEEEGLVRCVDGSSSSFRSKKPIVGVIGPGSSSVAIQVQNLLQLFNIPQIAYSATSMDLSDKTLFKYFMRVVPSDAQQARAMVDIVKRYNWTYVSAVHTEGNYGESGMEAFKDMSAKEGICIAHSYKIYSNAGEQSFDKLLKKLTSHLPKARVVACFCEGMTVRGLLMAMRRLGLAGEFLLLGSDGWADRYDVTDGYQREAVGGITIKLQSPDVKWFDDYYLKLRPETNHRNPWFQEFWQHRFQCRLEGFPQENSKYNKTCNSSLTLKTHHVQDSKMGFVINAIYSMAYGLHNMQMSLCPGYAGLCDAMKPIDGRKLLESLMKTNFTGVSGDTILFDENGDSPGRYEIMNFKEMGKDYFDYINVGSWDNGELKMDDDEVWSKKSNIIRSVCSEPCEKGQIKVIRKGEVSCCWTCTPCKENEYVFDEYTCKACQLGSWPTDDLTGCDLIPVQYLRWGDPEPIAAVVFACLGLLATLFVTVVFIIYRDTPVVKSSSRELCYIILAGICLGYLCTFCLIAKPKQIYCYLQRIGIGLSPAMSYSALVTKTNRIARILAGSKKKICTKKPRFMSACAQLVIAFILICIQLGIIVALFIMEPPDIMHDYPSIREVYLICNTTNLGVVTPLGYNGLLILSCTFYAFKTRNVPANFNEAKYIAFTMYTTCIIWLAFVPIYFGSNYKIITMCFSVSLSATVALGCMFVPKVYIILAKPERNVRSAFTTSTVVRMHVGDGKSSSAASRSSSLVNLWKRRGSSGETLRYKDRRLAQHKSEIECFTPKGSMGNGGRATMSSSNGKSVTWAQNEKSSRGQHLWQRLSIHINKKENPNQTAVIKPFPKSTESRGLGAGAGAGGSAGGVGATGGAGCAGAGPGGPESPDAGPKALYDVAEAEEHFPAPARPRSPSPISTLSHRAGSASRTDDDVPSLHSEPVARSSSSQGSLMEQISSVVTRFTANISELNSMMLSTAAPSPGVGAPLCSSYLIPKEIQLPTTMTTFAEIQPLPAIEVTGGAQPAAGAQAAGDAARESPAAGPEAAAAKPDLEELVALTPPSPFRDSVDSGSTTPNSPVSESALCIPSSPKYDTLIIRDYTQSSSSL
T4 sequence (Q14832 with tags, fused parts or gaps): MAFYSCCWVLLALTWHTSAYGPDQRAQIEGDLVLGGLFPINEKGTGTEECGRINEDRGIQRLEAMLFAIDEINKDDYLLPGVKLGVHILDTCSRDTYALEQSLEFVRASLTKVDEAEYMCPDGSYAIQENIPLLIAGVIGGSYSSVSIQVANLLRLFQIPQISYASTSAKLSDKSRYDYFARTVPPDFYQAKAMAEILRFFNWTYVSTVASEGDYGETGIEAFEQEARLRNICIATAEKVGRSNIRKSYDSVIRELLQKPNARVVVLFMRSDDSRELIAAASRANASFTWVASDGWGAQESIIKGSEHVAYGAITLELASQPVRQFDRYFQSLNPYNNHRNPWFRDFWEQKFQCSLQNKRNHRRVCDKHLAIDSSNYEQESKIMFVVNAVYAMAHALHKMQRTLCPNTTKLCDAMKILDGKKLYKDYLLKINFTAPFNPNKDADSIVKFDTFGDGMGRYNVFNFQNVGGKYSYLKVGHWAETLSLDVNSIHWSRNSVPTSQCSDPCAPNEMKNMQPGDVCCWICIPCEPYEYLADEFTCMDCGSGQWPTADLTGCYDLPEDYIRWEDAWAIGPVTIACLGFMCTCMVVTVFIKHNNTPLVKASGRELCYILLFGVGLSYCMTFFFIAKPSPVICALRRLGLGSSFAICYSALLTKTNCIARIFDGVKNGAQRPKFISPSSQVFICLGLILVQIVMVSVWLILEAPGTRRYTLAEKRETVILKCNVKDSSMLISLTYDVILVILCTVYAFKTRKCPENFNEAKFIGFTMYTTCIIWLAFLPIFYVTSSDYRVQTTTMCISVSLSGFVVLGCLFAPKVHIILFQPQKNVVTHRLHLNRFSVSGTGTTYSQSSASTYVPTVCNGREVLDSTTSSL
T2 sequence (Q14416 with tags, fused parts or gaps): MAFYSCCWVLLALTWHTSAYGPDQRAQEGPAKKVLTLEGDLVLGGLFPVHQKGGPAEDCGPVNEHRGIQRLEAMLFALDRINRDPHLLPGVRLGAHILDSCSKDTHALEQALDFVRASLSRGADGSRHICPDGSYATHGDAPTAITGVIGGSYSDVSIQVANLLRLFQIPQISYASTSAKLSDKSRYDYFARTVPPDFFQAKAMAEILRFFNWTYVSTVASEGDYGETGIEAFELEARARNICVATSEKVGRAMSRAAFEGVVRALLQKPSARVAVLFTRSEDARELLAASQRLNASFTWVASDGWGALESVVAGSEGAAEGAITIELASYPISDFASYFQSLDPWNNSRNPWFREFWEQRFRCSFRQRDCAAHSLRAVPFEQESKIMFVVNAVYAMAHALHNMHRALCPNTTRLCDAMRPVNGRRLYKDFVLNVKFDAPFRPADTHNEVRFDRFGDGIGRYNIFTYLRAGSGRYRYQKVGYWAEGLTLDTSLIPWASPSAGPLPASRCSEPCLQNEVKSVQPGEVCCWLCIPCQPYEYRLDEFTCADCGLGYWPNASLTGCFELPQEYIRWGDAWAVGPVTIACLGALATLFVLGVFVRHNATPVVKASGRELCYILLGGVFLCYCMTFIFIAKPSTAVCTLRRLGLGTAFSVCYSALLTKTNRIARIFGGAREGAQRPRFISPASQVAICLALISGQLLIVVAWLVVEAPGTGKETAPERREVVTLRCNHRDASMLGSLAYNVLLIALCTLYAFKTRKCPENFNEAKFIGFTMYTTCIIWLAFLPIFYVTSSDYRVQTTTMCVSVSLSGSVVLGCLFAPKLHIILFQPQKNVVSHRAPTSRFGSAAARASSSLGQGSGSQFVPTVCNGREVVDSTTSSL
Sequence of pmGluR1/CaR chimera (P23385 with tags, fused parts or gaps): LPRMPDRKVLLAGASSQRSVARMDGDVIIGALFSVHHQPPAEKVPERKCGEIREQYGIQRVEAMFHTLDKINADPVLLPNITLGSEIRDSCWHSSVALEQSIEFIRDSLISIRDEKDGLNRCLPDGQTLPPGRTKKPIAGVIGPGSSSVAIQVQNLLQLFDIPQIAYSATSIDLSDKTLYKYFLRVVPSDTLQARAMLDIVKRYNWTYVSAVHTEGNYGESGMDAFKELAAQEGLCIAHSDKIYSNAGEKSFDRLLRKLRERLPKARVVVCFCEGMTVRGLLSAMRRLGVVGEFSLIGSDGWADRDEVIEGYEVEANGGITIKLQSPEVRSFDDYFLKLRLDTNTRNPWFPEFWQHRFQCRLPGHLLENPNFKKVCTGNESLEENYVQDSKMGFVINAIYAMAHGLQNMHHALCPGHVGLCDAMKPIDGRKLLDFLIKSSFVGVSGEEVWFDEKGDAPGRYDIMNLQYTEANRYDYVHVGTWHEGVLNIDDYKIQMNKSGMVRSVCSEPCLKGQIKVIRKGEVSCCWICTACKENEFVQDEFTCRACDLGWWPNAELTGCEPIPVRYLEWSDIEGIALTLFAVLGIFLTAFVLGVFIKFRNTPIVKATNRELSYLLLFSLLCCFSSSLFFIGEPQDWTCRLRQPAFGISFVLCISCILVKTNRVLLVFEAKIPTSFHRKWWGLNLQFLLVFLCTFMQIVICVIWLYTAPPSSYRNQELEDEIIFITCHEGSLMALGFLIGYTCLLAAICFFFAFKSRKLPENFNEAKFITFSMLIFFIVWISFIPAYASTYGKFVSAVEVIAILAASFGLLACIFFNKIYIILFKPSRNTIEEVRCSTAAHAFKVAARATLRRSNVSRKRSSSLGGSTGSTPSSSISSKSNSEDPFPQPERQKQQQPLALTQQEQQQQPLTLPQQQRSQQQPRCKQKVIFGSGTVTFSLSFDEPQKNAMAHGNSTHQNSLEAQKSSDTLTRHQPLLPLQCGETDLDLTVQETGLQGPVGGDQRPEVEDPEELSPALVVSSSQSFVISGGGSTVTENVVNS
T5 sequence (Q14831 with tags, fused parts or gaps): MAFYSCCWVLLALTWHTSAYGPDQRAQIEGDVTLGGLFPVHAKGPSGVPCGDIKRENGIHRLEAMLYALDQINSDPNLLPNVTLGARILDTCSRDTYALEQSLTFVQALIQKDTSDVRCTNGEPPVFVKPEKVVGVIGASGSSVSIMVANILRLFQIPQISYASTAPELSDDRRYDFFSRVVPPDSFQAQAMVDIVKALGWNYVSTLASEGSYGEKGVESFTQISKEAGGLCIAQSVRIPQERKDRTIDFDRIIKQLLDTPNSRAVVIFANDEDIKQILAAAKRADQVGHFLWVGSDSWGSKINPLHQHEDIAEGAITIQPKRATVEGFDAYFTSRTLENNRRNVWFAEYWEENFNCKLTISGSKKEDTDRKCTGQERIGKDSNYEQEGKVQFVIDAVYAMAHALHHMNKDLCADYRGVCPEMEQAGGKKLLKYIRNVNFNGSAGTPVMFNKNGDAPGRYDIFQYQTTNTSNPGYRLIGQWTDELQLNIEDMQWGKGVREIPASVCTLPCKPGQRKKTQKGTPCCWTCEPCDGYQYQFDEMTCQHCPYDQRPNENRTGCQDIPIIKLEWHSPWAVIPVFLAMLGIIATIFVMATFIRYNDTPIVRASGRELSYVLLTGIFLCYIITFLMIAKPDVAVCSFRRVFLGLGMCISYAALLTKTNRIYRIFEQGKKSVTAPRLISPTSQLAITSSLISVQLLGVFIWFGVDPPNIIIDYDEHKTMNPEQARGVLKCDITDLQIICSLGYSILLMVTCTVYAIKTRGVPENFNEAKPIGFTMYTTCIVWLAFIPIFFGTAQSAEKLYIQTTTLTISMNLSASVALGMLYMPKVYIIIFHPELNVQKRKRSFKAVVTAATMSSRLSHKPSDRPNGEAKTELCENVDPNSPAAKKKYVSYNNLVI

Compound	activation of the chimeric receptor [1]	activation of the receptor [2]	Cl- current in oocytes injected with human CaR RNA [3]	activation of the chimeric receptor [4]	activation of the chimeric receptor [5]	activation of the chimeric receptor [6]	receptor response (Cl- currents on release of intracellular Ca2+) [7]	receptor response (Cl- currents on release of intracellular Ca2+) [8]
N[C@@H](CCC(=O)O)C(=O)O [L-glutamate]	Activation of the chimeric receptor	Activation of the receptor	elicits oscillatory increases in Cl— current	activation of the chimeric receptor was seen	robust activation	Activation of the chimeric receptor	–	–
N[C@@H](Cn1oc(=O)[nH]c1=O)C(=O)O [quisqualate]	–	–	–	–	–	–	respond comparably	respond comparably
